Where two headings read alike, the source gives them in different places. Each block holds one compound with its values, some of them ahead of it. Where a SMILES comes first, the peptide text is derived from it. Bridges are numbered along the chain shown (N, C = ends). [ ]: non-standard residue; d: D form. The star is where a group is joined. 5FAM = O=C1OC2(c3ccc(O)cc3Oc3cc(O)ccc32)c2ccc(C(=O)*)cc21; NMeI = CC[C@H](C)[C@H](NC)C(=O)O; Sar = CNCC(=O)O
Experiments:
Aβ40 [1] = target: T1, Aβ40 (Homo sapiens, UniProt P05067); experiment: MTT reduction assay: IC50 of inhibitory effect on cell-damaging amyloid self-assembly of Aβ40 (PC12 cells); assay type: cell-based
T1 construct: Aβ40 (TFA salt) was synthesized by Fmoc-based solid phase synthesis (SPPS); made in house; host or cells: chemical synthesis (Fmoc SPPS on Tentagel R PHB resin)
Method: (§1) Assessment of Cell Damage by MTT Reduction Assay
(§2) Both cell lines were cultured and plated in 96-well plates as described. […] Following incubation with the cells for ˜20 h (37° C., humidified atmosphere with 5% CO2), the MTT reduction assay was used to assess cell damage/metabolic activity as previously described.

IAPP [2] = target: T2, IAPP (Homo sapiens, UniProt P10997); experiment: MTT reduction assay: IC50 of inhibitory effect on cell-damaging amyloid self-assembly of IAPP (RIN5fm cells)
T2 sequence (P10997 34-70 limits assumed): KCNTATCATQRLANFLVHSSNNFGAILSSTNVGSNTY
Method: as §1, §2

Aβ40 [3] = target: T1, Aβ40; experiment: Fluorescence spectroscopic titration of Dac-Aβ40; assay type: binding; conditions: Dac-Aβ40 10 nM, pH 7.4
Method: (§3) Fluorescence Spectroscopic Titration Studies
(§4) A JASCO FP-6500 fluorescence spectrophotometer was used for the fluorescence spectroscopic titrations, which were performed by using previously described experimental protocols. […] App. […] Briefly, freshly made stock solutions of peptides and fluorescently labeled analogs in HFIP were used. Measurements were performed in 10 mM sodium phosphate buffer, pH 7.4 ([…]) at room temperature within 2-5 min following solution preparation. […] App. Kds were estimated using 1/1 binding models as previously described. […] KdDs are means (+SD) from three binding curves.

[4] = Peptide stability in human plasma (in vitro); assay type: in vitro ADME; conditions: human blood plasma, 200 μM peptide, 37° C.
Method: Peptide Stability in Human Plasma (In Vitro)
Peptides were dissolved in human blood plasma (obtained from voluntary healthy donors) at a concentration of 200 μM and incubated at 37° C. for various time intervals. Following quenching (1/1) with aqueous trichloroacetic acid (10%), solutions were incubated on ice for 10 min, subjected to centrifugation to precipitate plasma proteins (20200 g; 4 min), and the supernatants were mixed (1/2) with a solution consisting of 80% HPLC buffer B and 20% HPLC buffer A (see below). To quantify intact peptide at different time points, solutions containing the supernatants were analyzed by RP-HPLC (detection at 214 nm) by using a Nucleosil 100 C18 column (Grace) (length 33 mm length, ID 8 mm, 7 μm particle size) with a flow rate of 2.0 ml/min and eluting buffers A, 0.058% (v/v) TFA in water, and B, 0.05% (v/v) TFA in 90% (v/v) CH3CN in water. The elution gradient was 10-90% B in A over 8 min; this step was followed by a 90-10% B in A over 3 min step to establish starting conditions. HPLC fractions were collected, lyophilized, and analyzed by MALDI-TOF-MS using a Bruker Daltonik MALDI-TOF MS instrument.

IAPP [5] = target: T2, IAPP; experiment: Fluorescence spectroscopic titration of Fluos-IAPP; assay type: binding; set-up: IAPP was synthesized by SPPS and the Fmoc-strategy on RINK resin, subjected to air oxidation and purified by RP-HPLC; made in house; host or cells: chemical synthesis (Fmoc SPPS on RINK resin, air oxidation); conditions: Fluos-IAPP 5 nM, pH 7.4
Method: as §3, §4

[6] = target: recombinant human neprilysin (NEP) (Homo sapiens, UniProt P08473); conditions: peptide 100 μM, NEP 500 ng/ml, pH 6.5, 37° C.
From the text: Peptide Stability Toward Degradation by Human Neprilysin (In Vitro)
At indicated time points aliquots were quenched (1/1) with aqueous trichloroacetic acid (10%) and solutions were subjected to HPLC analysis and HPLC fractions were collected and analyzed by MALDI-TOF-MS as described under “Peptide stability in human plasma” (above).

hCMEC/D3 cells = experiment: Human BBB Transwell permeability assay (in vitro); conditions: hCMEC monolayer on Transwell; peptides 10 μM, Lucifer yellow 20 μM; mean (±SEM)
Method: Human BBB Transwell Permeability Assay (In Vitro)
Human cerebral microvascular endothelial (hCMEC/D3) cells (Merck) were cultured in collagen type I-coated dishes in EndoGro-MV complete culture media kit supplemented with 1 ng/mL fibroblast growth factor-2 (FGF-2) (all reagents from Merck) (at 37° C. and 5% CO2). […] The Transwell permeability assay was then performed based on a previously established assay using 24-well plates (Sigma-Aldrich) containing 6.5 mm Transwell inserts (0.4 μm pore polycarbonate membrane (Corning)) as follows:
hCMEC/D3 cells were grown in endothelial cell medium (ECM), containing EndoGro-MV complete media, 10% fetal bovine serum (FBS), 1% penicillin-streptamycine (P/S), and 1 ng/mL FGF-2 on the membranes of the Transwell inserts (2×10^5 cells/insert) (37° C. and 5% CO2) until full confluency was reached (normally after 5-7 days of culture). Confluency and BBB-type tightness was verified by TEER analysis; TEER values of 60-80 Ωcm^2 were obtained. The upper and lower chambers then were reconstituted with 200 μl and 800 μl, respectively, of ECM containing 2% FBS. The N-terminal fluorescein-labeled 12 amino acid-long peptide [sequence]-amide (Fluos-Trfb) known to readily cross the BBB via binding to the transferrin receptor, was used as a positive control for BBB permeability in this model.
As a reference point for the maximum fluorescence intensity, 100 μl of medium from the upper chamber at 0 h was also transferred and quantified. […] Lucifer yellow in the lower chamber was quantified by measuring the fluorescence at 530 nm (excitation at 485 nm). Relative permeability (FIG. 3f) was calculated by dividing the fluorescence value of the aliquot from the lower chamber at each time point by the fluorescence value of the 0 h-lower chamber aliquot.
Reported Papp values are means (±SEM) from at least 3 transport assays (each of them performed in triplicates).

[7] = RP-HPLC and MALDI-TOF-MS, read-out: Half-life time in human plasma
[8] = Aβ40 500 nM, 72 h-aged solutions, PC12 cells, MTT reduction, means (±SD) from 3-4 titration assays, read-out: IC50 (±SD) (nM) Aβ40 inhibition

T1 sequence (P05067 672-711): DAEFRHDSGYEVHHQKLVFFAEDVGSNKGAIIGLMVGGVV
Chain of recombinant human neprilysin (NEP) (P08473 whole entry): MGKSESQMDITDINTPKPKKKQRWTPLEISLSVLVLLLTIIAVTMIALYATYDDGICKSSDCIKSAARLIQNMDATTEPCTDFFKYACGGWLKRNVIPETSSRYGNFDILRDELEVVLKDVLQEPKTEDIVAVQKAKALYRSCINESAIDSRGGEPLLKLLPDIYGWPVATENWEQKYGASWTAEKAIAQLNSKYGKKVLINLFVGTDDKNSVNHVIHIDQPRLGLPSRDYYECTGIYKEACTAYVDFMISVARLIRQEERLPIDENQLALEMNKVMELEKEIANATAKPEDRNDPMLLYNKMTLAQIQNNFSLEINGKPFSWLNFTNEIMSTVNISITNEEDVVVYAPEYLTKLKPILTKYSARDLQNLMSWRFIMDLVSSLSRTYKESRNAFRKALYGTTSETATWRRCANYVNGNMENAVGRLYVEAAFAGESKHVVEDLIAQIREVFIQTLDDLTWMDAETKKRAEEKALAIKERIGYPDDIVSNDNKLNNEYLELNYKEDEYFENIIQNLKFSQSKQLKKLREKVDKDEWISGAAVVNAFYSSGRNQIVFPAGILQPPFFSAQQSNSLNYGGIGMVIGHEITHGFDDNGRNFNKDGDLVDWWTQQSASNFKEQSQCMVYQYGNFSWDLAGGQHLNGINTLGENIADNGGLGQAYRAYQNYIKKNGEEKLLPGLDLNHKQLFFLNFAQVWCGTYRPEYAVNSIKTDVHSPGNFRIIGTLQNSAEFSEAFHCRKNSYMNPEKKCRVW

Compound: CC[C@H](C)[C@H]1C(=O)NCC(=O)NCC(=O)N[C@H](C(N)=O)CSSC[C@H](N)C(=O)NCC(=O)N[C@@H](Cc2ccccc2)C(=O)N[C@@H](CC(C)C)C(=O)NCC(=O)NCC(=O)N[C@@H](CCCNC(=N)N)C(=O)N[C@@H](CCCNC(=N)N)C(=O)N[C@@H](CCCNC(=N)N)C(=O)NCC(=O)N[C@@H](Cc2ccccc2)C(=O)N(C)CC(=O)NCC(=O)N1C [Peptide 2b] (H-CGFLGGRRRGF[Sar]G[NMeI]GGC-NH2; disulfide 1-17)
- IC50 (Aβ40 [1]): 654 nM
- IC50 (IAPP [2]): 426 nM
- app. Kd of interaction with N-terminal fluorescently labeled Aβ40 (Aβ40 [3]): mid-nanomolar
- half-life at 200 μM ([4]; read-out: t1/2 in human plasma): ~45 min
- app. Kd of interaction with N-terminal fluorescently labeled IAPP (IAPP [5]): mid-nanomolar

- Papp A→B: 20.8 ×10⁻⁶ cm/s
Compound: CSCC[C@H](NC(=O)[C@@H]1CCCN1C(=O)[C@@H]1CCCN1C(=O)[C@H](CCCNC(=N)N)NC(=O)[C@H](Cc1c[nH]cn1)NC(=O)[C@@H](NC(=O)c1ccc2c(c1)C(=O)OC21c2ccc(O)cc2Oc2cc(O)ccc21)[C@@H](C)O)C(=O)N[C@@H](Cc1c[nH]c2ccccc12)C(=O)N[C@@H](CO)C(=O)N1CCC[C@H]1C(=O)N[C@H](C(=O)N[C@@H](Cc1c[nH]c2ccccc12)C(=O)N1CCC[C@H]1C(N)=O)C(C)C [Fluos-Trfb, reference compound] (5FAM-THRPPMWSPVWP-NH2; N-terminus assumed)

Compound: CC[C@H](C)[C@H]1C(=O)NCC(=O)NCC(=O)N[C@@H](C(N)=O)CSSC[C@@H](N)C(=O)NCC(=O)N[C@H](Cc2ccccc2)C(=O)N[C@H](CC(C)C)C(=O)NCC(=O)NCC(=O)N[C@H](CCCNC(=N)N)C(=O)N[C@H](CCCNC(=N)N)C(=O)N[C@H](CCCNC(=N)N)C(=O)NCC(=O)N[C@H](Cc2ccccc2)C(=O)N(C)CC(=O)NCC(=O)N1C [Peptide 2e] (H-[dC]G[dF][dL]GG[dR][dR][dR]G[dF][Sar]G[NMeI]GG[dC]-NH2; disulfide 1-17)
- IC50 (Aβ40 [1]): 542 nM
- half-life at 200 μM [4, 7]: > 660 min
- Resistance to degradation by human neprilysin [6]: fully resistant to degradation

Compound: CC[C@H](C)[C@H]1C(=O)N[C@@H](CC(C)C)C(=O)N[C@@H](CO)C(=O)N[C@H](C(N)=O)CSSC[C@H](N)C(=O)N[C@@H](CC(N)=O)C(=O)N[C@@H](Cc2ccccc2)C(=O)N[C@@H](CC(C)C)C(=O)N[C@@H](C(C)C)C(=O)N[C@@H](Cc2c[nH]cn2)C(=O)N[C@@H](CCCNC(=N)N)C(=O)N[C@@H](CCCNC(=N)N)C(=O)N[C@@H](CCCNC(=N)N)C(=O)N[C@@H](CC(N)=O)C(=O)N[C@@H](Cc2ccccc2)C(=O)N(C)CC(=O)N[C@@H](C)C(=O)N1C [Peptide 2a] (H-CNFLVHRRRNF[Sar]A[NMeI]LSC-NH2; disulfide 1-17; N-terminus assumed)
- Potency against IAPP cytotoxic self-assembly relative to 1a (IAPP [2]; ratio of IC50s): ~3 fold
- app. Kd of interaction with N-terminal fluorescently labeled Aβ40 (Aβ40 [3]): mid-nanomolar
- app. Kd of interaction with N-terminal fluorescently labeled IAPP (IAPP [5]): mid-nanomolar

Compound: CC[C@H](C)[C@H]1C(=O)N[C@@H](CC(C)C)C(=O)N[C@@H](CO)C(=O)N[C@H](C(N)=O)CSSC[C@H](N)C(=O)N[C@@H](C)C(=O)N[C@@H]([C@@H](C)O)C(=O)N[C@@H](CCC(N)=O)C(=O)N[C@@H](CCCNC(=N)N)C(=O)N[C@@H](CC(C)C)C(=O)N[C@@H](C)C(=O)N[C@@H](CC(N)=O)C(=O)N[C@@H](Cc2ccccc2)C(=O)N[C@@H](CC(C)C)C(=O)N[C@@H](C(C)C)C(=O)N[C@@H](Cc2c[nH]cn2)C(=O)N[C@@H](CCCNC(=N)N)C(=O)N[C@@H](CCCNC(=N)N)C(=O)N[C@@H](CCCNC(=N)N)C(=O)N[C@@H](CC(N)=O)C(=O)N[C@@H](Cc2ccccc2)C(=O)N(C)CC(=O)N[C@@H](C)C(=O)N1C [Peptide 1a] (H-CATQRLANFLVHRRRNF[Sar]A[NMeI]LSC-NH2; disulfide 1-23; N-terminus assumed)
- app. Kd of interaction with N-terminal fluorescently labeled Aβ40 (Aβ40 [3]): mid-nanomolar
- app. Kd of interaction with N-terminal fluorescently labeled IAPP (IAPP [5]): mid-nanomolar

- IC50 (Aβ40 [1]; [8]): 703 nM
- half-life at 200 μM [4, 7]: 60 to 120 min
Compound: CC[C@H](C)[C@H]1C(=O)NCC(=O)NCC(=O)N[C@H](C(N)=O)CSSC[C@H](N)C(=O)NCC(=O)N[C@H](Cc2ccccc2)C(=O)N[C@H](CC(C)C)C(=O)NCC(=O)NCC(=O)N[C@H](CCCNC(=N)N)C(=O)N[C@H](CCCNC(=N)N)C(=O)N[C@H](CCCNC(=N)N)C(=O)NCC(=O)N[C@H](Cc2ccccc2)C(=O)N(C)CC(=O)NCC(=O)N1C [Peptide 2d] (H-CG[dF][dL]GG[dR][dR][dR]G[dF][Sar]G[NMeI]GGC-NH2; disulfide 1-17)

- IC50 (Aβ40 [1]; [8]): 204 nM
- half-life at 200 μM [4, 7]: 60 to 120 min
Compound: CC[C@H](C)[C@H]1C(=O)NCC(=O)NCC(=O)N[C@H](C(N)=O)CSSC[C@H](N)C(=O)NCC(=O)N[C@@H](Cc2ccccc2)C(=O)N[C@@H](CC(C)C)C(=O)NCC(=O)NCC(=O)N[C@H](CCCNC(=N)N)C(=O)N[C@H](CCCNC(=N)N)C(=O)N[C@H](CCCNC(=N)N)C(=O)NCC(=O)N[C@@H](Cc2ccccc2)C(=O)N(C)CC(=O)NCC(=O)N1C [Peptide 2c] (H-CGFLGG[dR][dR][dR]GF[Sar]G[NMeI]GGC-NH2; disulfide 1-17)

Compound: Lucifer yellow
- Apparent permeability (Papp) at 2 h (hCMEC/D3 cells): 5.3×10^−6 (±2.7) cm/s

- Papp A→B: 14.6 ×10⁻⁶ cm/s
Compound: CC[C@H](C)[C@H]1C(=O)NCC(=O)NCC(=O)N[C@@H](C(N)=O)CSSC[C@@H](NC(=O)c2ccc3c(c2)C(=O)OC32c3ccc(O)cc3Oc3cc(O)ccc32)C(=O)NCC(=O)N[C@H](Cc2ccccc2)C(=O)N[C@H](CC(C)C)C(=O)NCC(=O)NCC(=O)N[C@H](CCCNC(=N)N)C(=O)N[C@H](CCCNC(=N)N)C(=O)N[C@H](CCCNC(=N)N)C(=O)NCC(=O)N[C@H](Cc2ccccc2)C(=O)N(C)CC(=O)NCC(=O)N1C [Fluos-2e] (5FAM-[dC]G[dF][dL]GG[dR][dR][dR]G[dF][Sar]G[NMeI]GG[dC]-NH2; disulfide 1-17; N-terminus assumed)
